Converted amounts (≈) assume the structure as drawn.
Assays:
Type in all cases: physicochemical
[1] = Solid state stability under stress conditions (XRPD, HPLC); conditions: closed vial about 60° C.; closed vial about 40° C./75% RH; 1 week and 2 weeks
Protocol: Form 1. Form 2, Form 6, Form 8, and Form 11 were each placed under following stress conditions: (1) in a closed vial at a temperature of about 60° C., and (2) in a closed vial at a temperature of about 40′° C. and a humidity of about 75% RH. The solids were analyzed with XRPD at 1 week and 2 weeks intervals.
Additionally, all forms were analyzed with HPLC for impurity at the 1 week and 2 weeks intervals. In a typical analysis, about 5 mg of forms were each dissolved in 10 ml of diluents with the aid of sonication for 2 minutes. THF was used as the diluent for Form 1, and methanol was used as the diluent for Form 6, Form 8, and Form 11. The HPLC analysis utilized Agilent Eclipse XDB-C18 4.6*150 mm. 3.5 μm at 30° C., a mobile phase of a gradient between 0.1% H3PO4 and acetonitrile (9:1 to 2:8 to 9:1), an injection volume of 10 μl, a flow rate of 1.0 ml/min, and a detection wavelength of 214 nm.
Form 2 was further subject to the stability test in an open vial at 40° C. and a relative humidity of 75% RH.

[2] = Slurry stability in purified water (XRPD); conditions: stirred overnight at room temperature
Protocol: About 30 mg of Form land Form 5D, Form 6, and Form 8 were mixed with about 2.5 ml of purified water, and the mixtures were stirred for overnight at room temperature. The wet solids were isolated by centrifugation, and further dried in vacuum for 2.5 hours before being analyzed with XRPD.

[3] = Solubility in water, buffers and bio-relevant media (37° C., 24 h shaking, HPLC); conditions: for Solubility: 37° C., 24 h; for Appearance / solubility in water: shaken about 24 hours, compared with Form 1
Protocol: The solubility of Form 1, Form 2, Form 5D, Form 6, Form 8, and Form 11 was analyzed in water, 0.1NaqueousHCl, pH4.5 acetate buffer solution, pH6.8 phosphate buffer solution, simulated gastric fluid (SGF), Fasted State Simulated Intestinal Fluid (FaSSIF), and Fed State Simulated Intestinal Fluid (FeSSIF).
About 5 mg or 10 mg of sample was weighed out into each vial and mixed with about 5 ml of medium to form a solution. The target concentration for the potassium salt in water was 2 mg/ml; and the target concentration for all other forms were 1 mg/mL. All samples were kept shaking at 200 rounds per minute (rpm) under 37° C. for 24 hours. The pH value of these samples were determined after shaking for 24 hours. Subsequently, they were centrifuged at the speed of 12000 rpm for 2 mins. The supernatant was diluted with methanol as necessary, and the concentrations were determined by HPLC. When the solubility of potassium salt was tested in water, the supernatant was diluted 100 times, while no other samples were diluted. The HPLC analysis utilizes Agilent Eclipse XDB-C8 4.6*150 mm, 5 μm column at 40° C., a mobile phase of 0.1% TFA: ACN=70:30, an injection volume of 10 μl, a flow rate of 1.0 ml/min, a diluent of methanol, and a detection wavelength of 234 nm.

[4] = Dynamic vapor sorption/desorption (DVS); conditions: 25° C., 85% RH
Protocol: Moisture sorption/desorption data were collected on a SMS DVS intrinsic Vapor Sorption Analyzer under a nitrogen purge. The DVS experiment generally includes a moisture sorption step and a moisture desorption step. […] In other words, the sample is considered to have reached an equilibrium between moisture sorption and desorption under the relative humidity when dm/dt≤0.01%. The sample was maintained at the temperature of 25° C. with relative humidity varied from 0% to 95%, and back to 0% at an increment of 5% RH each step.

| SMILES | XRPD pattern after stress storage [1] | Crystal form after slurry in purified water (XRPD) [2] | Solubility ([3]; 0.1N HCl) [µg/mL] | Solubility ([3]; FaSSIF) [µg/mL] | Solubility ([3]; FeSSIF) [µg/mL] | Solubility ([3]; SGF) [µg/mL] | Solubility ([3]; Water) [µg/mL] | Solubility ([3]; pH 4.5 acetate buffer) [µg/mL] | Solubility ([3]; pH 6.8 phosphate buffer) [µg/mL] | Appearance / solubility in water [3] | DVS (85% RH) [4] [%] |
| --- | --- | --- | --- | --- | --- | --- | --- | --- | --- | --- | --- |
| CCc1nc2ccccn2c1C(=O)c1cc(Br)c(O)c(C#N)c1 [Form 6, 3-bromo-5-[(2-ethylimidazo[1,2-a]pyridin-3-yl)carbonyl]-2-hydroxybenzonitrile] | substantially similar to those received at the initial time | transformed into Form 1 | 4.6 (≈ 12.4 µM) | 45.8 (≈ 124 µM) | 4.4 (≈ 11.9 µM) | 3.3 (≈ 8.91 µM) | 0.4 (≈ 1.08 µM) | 0.5 (≈ 1.35 µM) | 25.7 (≈ 69.4 µM) | reduced solubility in water | 0.35 |
| CCc1nc2ccccn2c1C(=O)c1cc(Br)c(O)c(C#N)c1 [Form 7, 3-bromo-5-[(2-ethylimidazo[1,2-a]pyridin-3-yl)carbonyl]-2-hydroxybenzonitrile] |  |  |  |  |  |  |  |  |  |  | 1.93 |
| CCc1nc2ccccn2c1C(=O)c1cc(Br)c(O)c(C#N)c1 [Form 8, 3-bromo-5-[(2-ethylimidazo[1,2-a]pyridin-3-yl)carbonyl]-2-hydroxybenzonitrile] | substantially similar to those received at the initial time | transformed into Form 1 | 5.3 (≈ 14.3 µM) | 14.5 (≈ 39.2 µM) | 8.6 (≈ 23.2 µM) | 3.5 (≈ 9.45 µM) | 0.5 (≈ 1.35 µM) | 0.6 (≈ 1.62 µM) | 17.9 (≈ 48.4 µM) | reduced solubility in water | 4.66 |
| CCc1nc2ccccn2c1C(=O)c1cc(Br)c(O)c(C#N)c1 [Form 9, 3-bromo-5-[(2-ethylimidazo[1,2-a]pyridin-3-yl)carbonyl]-2-hydroxybenzonitrile] |  |  |  |  |  |  |  |  |  |  | 0.29 |
| CCc1nc2ccccn2c1C(=O)c1cc(Br)c(O)c(C#N)c1 [Form 10, 3-bromo-5-[(2-ethylimidazo[1,2-a]pyridin-3-yl)carbonyl]-2-hydroxybenzonitrile] |  |  |  |  |  |  |  |  |  |  | 2.37 |
| CCc1nc2ccccn2c1C(=O)c1cc(Br)c(O)c(C#N)c1 [Form 11, 3-bromo-5-[(2-ethylimidazo[1,2-a]pyridin-3-yl)carbonyl]-2-hydroxybenzonitrile] | substantially similar to those received at the initial time |  | 6.8 (≈ 18.4 µM) | 28.4 (≈ 76.7 µM) | 3.4 (≈ 9.18 µM) | 5.8 (≈ 15.7 µM) | 1914.5 (≈ 5170 µM) | 1.7 (≈ 4.59 µM) | 31.0 (≈ 83.7 µM) | nearly clear solution in water | 6.18 |
| CCc1nc2ccccn2c1C(=O)c1cc(Br)c(O)c(C#N)c1 [Form 12, 3-bromo-5-[(2-ethylimidazo[1,2-a]pyridin-3-yl)carbonyl]-2-hydroxybenzonitrile] |  |  |  |  |  |  |  |  |  |  | 8.07 |

Reference: patent US20250368639A1, “SOLID FORMS OF A COMPOUND FOR TREATING OR PREVENTING HYPERURICEMIA OR GOUT” (ATOM THERAPEUTICS CO., LTD, priority 2022, published 2025)
